For 24 compounds, EC50 results are on record in US8785445B2 (Array BioPharma Inc., priority 2008, dated 2014).

Where two headings read alike, the source gives them in different places.

As a reminder, the EC50 is the concentration that produces a half-maximal response.

For the assay, the target named is T1, human DP2 (Homo sapiens, UniProt Q9Y5Y4).
T1 construct: expressed in transfected cells; membranes prepared
T1 sequence (Q9Y5Y4 1-395): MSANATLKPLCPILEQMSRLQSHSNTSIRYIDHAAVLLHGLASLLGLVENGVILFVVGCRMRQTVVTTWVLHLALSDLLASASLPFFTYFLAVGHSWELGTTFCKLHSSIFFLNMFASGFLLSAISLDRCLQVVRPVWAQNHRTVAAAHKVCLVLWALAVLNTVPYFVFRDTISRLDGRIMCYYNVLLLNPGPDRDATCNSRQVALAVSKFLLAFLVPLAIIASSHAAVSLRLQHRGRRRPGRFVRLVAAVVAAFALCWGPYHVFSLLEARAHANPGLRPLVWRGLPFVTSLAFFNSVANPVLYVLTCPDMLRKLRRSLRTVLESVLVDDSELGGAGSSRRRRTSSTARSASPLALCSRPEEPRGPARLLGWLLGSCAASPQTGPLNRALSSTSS
As to the kind of experiment: DP-2 binding inhibition assay (3H-PGD2, membranes of DP2-expressing K562 cells). An outline of the steps: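 Membranes from K562 clones stably expressing human DP2 were incubated 60 min at room temperature with 3H-PGD2 and compound, with 0.1% BSA, 1% HSA or 4% HSA, then filtered and counted.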

Where [1] appears, read: 4% HSA, read-out: EC50 (nM) 4% HSA.
[2] abbreviates: 0.1% BSA, read-out: EC50 (nM) 0.1% BSA.
Setting [3] is: 1% HSA, read-out: EC50 (nM) 1% HSA.

Regarding `O=C(Nc1ccn(-c2ccc(Cl)c(Cl)c2)n1)c1ccc(Oc2cc3c(cc2Cl)C(C(=O)O)CCO3)cc1` (stereo not shown) [Example 173, 6-chloro-7-(4-(1-(3,4-dichlorophenyl)-1H-pyrazol-3-ylcarbamoyl)phenoxy)chroman-4-carboxylic acid], the EC50 under setting [1] amounted to 22.9 nM.
`O=C(Nc1ccc2cc(Cl)ccc2n1)c1ccc(Oc2c(Cl)cc3c(c2Cl)OCCC3C(=O)O)cc1` (stereo not shown) [Example 144, Sodium 6,8-dichloro-7-(4-(6-chloroquinolin-2-ylcarbamoyl)phenoxy)chroman-4-carboxylate]: the EC50 under setting [1] is 299 nM.
Regarding `O=C(Nc1cc(-c2cccc(Cl)c2)ccn1)c1ccc(Oc2cc3c(cc2Cl)C(C(=O)O)CCO3)cc1` (stereo not shown) [Example 121, 6-Chloro-7-(4-(4-(3-chlorophenyl)pyridin-2-ylcarbamoyl)phenoxy)chroman-4-carboxylic acid], the EC50 under setting [1] came to 1890 nM.
For the compound `N#Cc1cc2c(cc1Oc1ccc(C(=O)Nc3cnc4ccccc4n3)cc1)OCCC2C(=O)O` (stereo not shown) [Example 4, 6-Cyano-7-(4-(quinoxalin-2-ylcarbamoyl)phenoxy)chroman-4-carboxylic acid], the EC50 reads like this: under setting [2], 27.7 nM; under setting [3], 370 nM.
As to `O=C(Nc1cncc(-c2ccc(C(F)(F)F)cc2)n1)c1ccc(Oc2cc3c(cc2Cl)C(C(=O)O)CCO3)cc1` (stereo not shown) [Example 93, 6-Chloro-7-(4-(6-(4-(trifluoromethyl)phenyl)pyrazin-2-ylcarbamoyl)phenoxy)chroman-4-carboxylic acid], under setting [1], the EC50 was determined as 80.5 nM.
Still for that read-out and setting: to `O=C(Nc1ccc(-c2ccc(Cl)cc2)nc1)c1ccc(Oc2cc3c(cc2Cl)C(C(=O)O)CCO3)cc1` (stereo not shown) [Example 123, 6-Chloro-7-(4-(6-(4-chlorophenyl)pyridin-3-ylcarbamoyl)phenoxy)chroman-4-carboxylic acid] belongs 294 nM; to `Cc1ccc(-c2csc(NC(=O)c3ccc(Oc4cc5c(cc4C#N)C(C(=O)O)CCO5)cc3)n2)cc1` (stereo not shown) [Example 205, 6-cyano-7-(4-(4-p-tolylthiazol-2-ylcarbamoyl)phenoxy) chroman-4-carboxylic acid], 96.2 nM.
On the same count and under the same terms, to `O=C(Nc1nc(-c2ccccc2)ns1)c1ccc(Oc2cc3c(cc2Cl)C(C(=O)O)CCO3)cc1` (stereo not shown) [Example 163, 6-chloro-7-(4-(3-phenyl-1,2,4-thiadiazol-5-ylcarbamoyl)phenoxy)chroman-4-carboxylic acid] belongs 564 nM.
Same read-out and setting: to `COc1cccc2cc(NC(=O)c3ccc(Oc4cc5c(cc4C#N)C(C(=O)O)CCO5)cc3)cnc12` (stereo not shown) [Example 7, 6-Cyano-7-(4-(8-methoxyquinolin-3-ylcarbamoyl)phenoxy)chroman-4-carboxylic acid] belongs 2070 nM.
In the case of `N#Cc1cc2c(cc1Oc1ccc(C(=O)NCCc3ccc(C(F)(F)F)nc3)cc1)OCCC2C(=O)O` (stereo not shown) [Example 12, 6-Cyano-7-(4-(2-(6-(trifluoromethyl)pyridin-3-yl)ethylcarbamoyl)phenoxy)chroman-4-carboxylic acid], the EC50 under setting [1] was determined as 667 nM.
For the compound `Cc1ccc(-c2ccc(NC(=O)c3ccc(Oc4cc5c(cc4Cl)C(C(=O)O)CCO5)cc3)nn2)cc1` (stereo not shown) [Example 62, Sodium 6-chloro-7-(4-(6-p-tolylpyridazin-3-ylcarbamoyl)phenoxy)chroman-4-carboxylate], the EC50 under setting [1] worked out at 327 nM.
Consider `Cc1cc2nc(NC(=O)c3ccc(Oc4cc5c(cc4C#N)C(C(=O)O)CCO5)cc3)sc2cc1C` (stereo not shown) [Example 200, 6-cyano-7-(4-(5,6-dimethylbenzo[d]thiazol-2-ylcarbamoyl)phenoxy) chroman-4-carboxylic acid], for which the EC50 under setting [2] stood at 7.6 nM.
For `O=C(Nc1ccc2c(Cl)cccc2n1)c1ccc(Oc2cc3c(cc2Cl)C(C(=O)O)CCO3)cc1` (stereo not shown) [Example 19, 6-Chloro-7-(4-(5-chloroquinolin-2-ylcarbamoyl)phenoxy)chroman-4-carboxylic acid], under setting [1], the EC50 is 210 nM.
The same measure, in the same setting: to `O=C(Nc1ccc(-c2ccc(C(F)(F)F)cc2)nc1)c1ccc(Oc2cc3c(cc2Cl)C(C(=O)O)CCO3)cc1` (stereo not shown) [Example 76, Sodium 6-chloro-7-(4-(6-(4-(trifluoromethyl)phenyl)pyridin-3-ylcarbamoyl)phenoxy)chroman-4-carboxylate] belongs 101 nM; to `O=C(Nc1cnc(-c2cccc(Cl)c2)nc1)c1ccc(Oc2cc3c(cc2Cl)C(C(=O)O)CCO3)cc1` (stereo not shown) [Example 135, 6-Chloro-7-(4-(2-(3-chlorophenyl)pyrimidin-5-ylcarbamoyl)phenoxy)chroman-4-carboxylic acid], 313 nM.
Same read-out and setting: to `COc1ccc(-c2cccc(NC(=O)c3ccc(Oc4cc5c(cc4Cl)C(C(=O)O)CCO5)cc3)n2)c(OC)n1` (stereo not shown) [Example 55, Sodium 6-chloro-7-(4-(2′,6′-dimethoxy-2,3′-bipyridin-6-ylcarbamoyl)phenoxy)chroman-4-carboxylate] belongs 258 nM; to `O=C(Nc1cnc2ccc(Cl)cc2n1)c1ccc(Oc2cc3c(cc2Cl)C(C(=O)O)CCO3)cc1` (stereo not shown) [Example 20, 6-Chloro-7-(4-(7-chloroquinoxalin-2-ylcarbamoyl)phenoxy)chroman-4-carboxylic acid], 255 nM; to `Cc1cc(NC(=O)c2ccc(Oc3cc4c(cc3Cl)C(C(=O)O)CCO4)cc2)nc(-c2ccc(C(F)(F)F)cc2)n1` (stereo not shown) [Example 102, Sodium 6-chloro-7-(4-(6-methyl-2-(4-(trifluoromethyl)phenyl)pyrimidin-4-ylcarbamoyl)phenoxy)chroman-4-carboxylate], 21.2 nM.
Still for that read-out and setting: to `O=C(Nc1cncc(-c2ccc(Cl)cc2)n1)c1ccc(Oc2c(Cl)cc3c(c2Cl)OCCC3C(=O)O)cc1` (stereo not shown) [Example 136, 6,8-Dichloro-7-(4-(6-(4-chlorophenyl)pyrazin-2-ylcarbamoyl)phenoxy)chroman-4-carboxylic acid] belongs 442 nM; to `CC(C)(C)c1ccc(-c2cccc(NC(=O)c3ccc(Oc4cc5c(cc4Cl)C(C(=O)O)CCO5)cc3)n2)cc1` (stereo not shown) [Example 85, 7-(4-(6-(4-tert-Butylphenyl)pyridin-2-ylcarbamoyl)phenoxy)-6-chlorochroman-4-carboxylic acid], 22.5 nM.
On to `Cc1ccc(-c2cccc(NC(=O)c3ccc(Oc4cc5c(cc4Cl)C(C(=O)O)CCO5)cc3)n2)cc1` (stereo not shown) [Example 57, 6-Chloro-7-(4-(6-p-tolylpyridin-2-ylcarbamoyl)phenoxy)chroman-4-carboxylic acid], for which the EC50 under setting [1] was 39.4 nM.
Regarding `O=C(Nc1cccc(-c2ccc(Cl)cc2)n1)c1ccc(Oc2c(Cl)cc3c(c2C2CC2)OCCC3C(=O)O)cc1` (stereo not shown) [Example 108, Sodium 6-chloro-7-(4-(6-(4-chlorophenyl)pyridin-2-ylcarbamoyl)phenoxy)-8-cyclopropylchroman-4-carboxylate], the EC50 under setting [2] is 8 nM and the concentration for a half-maximal effect (EC50) under setting [1] came to 144 nM.
Consider `O=C(Nc1cccc(-c2ccc(Cl)cc2)n1)c1ccc(Oc2c(C3CC3)cc3c(c2C2CC2)OCCC3C(=O)O)cc1` (stereo not shown) [Example 107, Sodium 7-(4-(6-(4-chlorophenyl)pyridin-2-ylcarbamoyl)phenoxy)-6,8-dicyclopropylchroman-4-carboxylate], for which, under setting [1], the EC50 was found to be 52.2 nM.
Turning to `N#Cc1cc2c(cc1Oc1ccc(C(=O)Nc3ccc4cc(Cl)ccc4n3)cc1)OCCC2C(=O)O` (stereo not shown) [Example 5, 7-(4-(6-Chloroquinolin-2-ylcarbamoyl)phenoxy)-6-cyanochroman-4-carboxylic acid], the EC50 runs as follows: under setting [2], 5.9 nM; under setting [3], 137 nM; under setting [1], 357 nM.
